Like-named read-outs stand apart in the source and are kept apart here.
Legend:
ovarian function = conditions: cited from earlier work
primordial follicles = tested on: primordial follicles; design: species or system mice; conditions: mouse, in vivo
From the text: Age-specified or timed-pregnant wild-type C57BL/6 and CD1 female mice were obtained from Charles River Laboratories, whereas AKR/J mice were obtained from Jackson Laboratories. Ovaries were fixed in 0.34N glacial acetic acid, 10% formalin, and 28% ethanol, paraffin embedded, and serially sectioned (8 μm). The sections were aligned in order on glass microscope slides, and stained with hematoxylin and picric methyl blue. The number of non-atretic or atretic primordial, primary, and preantral follicles was then determined. Primordial follicles were identified as having a compact oocyte surrounded by a single layer of flattened granulosa cells, while primary follicles were identified as having an enlarged oocyte surrounded by a single layer of cuboidal granulosa cells. Intermediate-stage follicles (compact or enlarged oocyte with a single layer of mixed flattened and cuboidal granulosa cells) were scored as primary. Preantral follicles were identified as having an enlarged oocyte surrounded by at least a partial or complete second layer of cuboidal granulosa cells, but no more than four complete layers of cuboidal granulosa cells. Only those follicles containing an oocyte with a clearly visible nucleus were scored. Follicles at the primordial, primary and preantral (immature) stages of development were scored as atretic if the oocyte was degenerating (convoluted, condensed) or fragmented. Grossly atretic follicles lacking oocyte remnants were not included in the analyses. […] A single trained ovarian histologist in a blinded fashion conducted all counts, and two other members of the group periodically evaluated random samples to verify accuracy and reproducibility of the data. […]
To clarify whether loss of primordial follicles observed in busulfan-treated females (FIG. 5a) results from toxicity to existing oocytes, ovaries were collected from female mice at multiple points during and after the busulfan dosing regimen described above, and they were analyzed for the incidence of primordial follicle atresia. […]

[1] = tested on: oocyte-containing follicles; experiment: In-vivo HDAC suppression with Trichostatin A, counts of oocyte-containing follicles; design: species or system mice
From the text: Age-specified or timed-pregnant wild-type C57BL/6 and CD1 female mice were obtained from Charles River Laboratories, whereas AKR/J mice were obtained from Jackson Laboratories. Ovaries were fixed in 0.34N glacial acetic acid, 10% formalin, and 28% ethanol, paraffin embedded, and serially sectioned (8 μm). The sections were aligned in order on glass microscope slides, and stained with hematoxylin and picric methyl blue. The number of non-atretic or atretic primordial, primary, and preantral follicles was then determined. Primordial follicles were identified as having a compact oocyte surrounded by a single layer of flattened granulosa cells, while primary follicles were identified as having an enlarged oocyte surrounded by a single layer of cuboidal granulosa cells. Intermediate-stage follicles (compact or enlarged oocyte with a single layer of mixed flattened and cuboidal granulosa cells) were scored as primary. Preantral follicles were identified as having an enlarged oocyte surrounded by at least a partial or complete second layer of cuboidal granulosa cells, but no more than four complete layers of cuboidal granulosa cells. Only those follicles containing an oocyte with a clearly visible nucleus were scored. Follicles at the primordial, primary and preantral (immature) stages of development were scored as atretic if the oocyte was degenerating (convoluted, condensed) or fragmented. Grossly atretic follicles lacking oocyte remnants were not included in the analyses. Given that this procedure sampled one-fifth of the entire ovarian volume, the total number of follicles per ovary (healthy or atretic) was then estimated by multiplying the cumulative counts for each ovary by a correction factor of five (Zuckerman, S. (1951) Recent Prog. Horm. Res. 6: 63-108; Tilly, J. L. (2003) Reprod. Biol. Endocrinol. 1:1-11). A single trained ovarian histologist in a blinded fashion conducted all counts, and two other members of the group periodically evaluated random samples to verify accuracy and reproducibility of the data.
Animals were sacrificed 24 hours post-injection, histological preparations of ovaries were prepared, and oocyte-containing follicles were counted per standard laboratory procedures (see Example 1). Treatment with TSA caused a 53% increase in the number of total healthy immature oocyte-containing follicles per ovary when compared with ovaries of control mice given the vehicle treatment. Not only was the resting (primordial) pool of follicles increased by 42%, but also the number of early growing (primary) follicles was increased (FIG. 7c).

[2] = tested on: primordial and early growing follicles (oocytes); experiment: Doxorubicin-synchronized oocyte death in adult female mice, germ cell dynamics; type: in vivo
Description: The existence of mammalian female germline stem cells implies an inherent capacity of the ovaries to generate, or regenerate following an insult, new stockpiles of resting (primordial) oocyte-containing follicles in a regulated fashion. To address this issue directly, adult female mice were injected with doxorubicin to synchronize oocyte death (Perez, G. I. et al, (1997) Nature Med. 3, 1228-32), and ovaries were collected at multiple intervals after drug exposure to assess germ cell dynamics.

[3] = prepubertal female mice, single i.p. injection 10 mg/kg, 24 hours post-injection

O=P1(N(CCCl)CCCl)NCCCO1 (centres unmarked) [cyclophosphamide]
POF, cases of patients (ovarian function; Grigg et al. 2000: both agents ages 14-57, median=38, cyclophosphamide alone ages 13-58, median=28): 47 of 103

CS(=O)(=O)OCCCCOS(C)(=O)=O [busulfan]
plateau number of atretic primordial follicles (primordial follicles; female, 20 mg/kg, 5 days): 46 per ovary
reduction in the resting (primordial) oocyte pool (primordial follicles; female, 3 weeks): 95%
ratio of primordial to primary follicles, busulfan versus vehicle (primordial follicles): No significant change
POF, cases of patients (ovarian function; in vivo): 19 of 19
hypogonadism indicative of premature ovarian failure (POF), cases of patients (ovarian function; in vivo): 20 of 21
ovarian damage requiring hormonal replacement, cases of patients (ovarian function; in vivo): 4 of 4

CC(/C=C/C(=O)NO)=C\[C@@H](C)C(=O)c1ccc(N(C)C)cc1 [TSA, Trichostatin A]
increase in primordial follicle numbers ([1]; female mice at 240 days of age, within 24 h (data not shown)): 89%
increase in healthy immature follicles (number) ([1]; prepubertal (13-day old) female mice, 10 mg/kg, 24 hours): more than 1,600
increase in the number of total healthy immature oocyte-containing follicles per ovary versus vehicle [1, 3]: 53%
increase of the resting (primordial) pool of follicles [1, 3]: 42%
number of early growing (primary) follicles [1, 3]: increased

COc1cccc2c1C(=O)c1c(O)c3c(c(O)c1C2=O)C[C@@](O)(C(=O)CO)C[C@@H]3O[C@H]1C[C@H](N)[C@H](O)[C@H](C)O1 [doxorubicin]
primordial and total immature follicle pools ([2]; between 24 and 36 h post-treatment (data not shown)): spontaneous regeneration
primordial and early growing follicles (oocytes) ([2]; within the first 24 h after treatment (data not shown)): rapid and extensive loss

— US8652840B2, “Method for obtaining female germline stem cells and uses thereof” (The General Hospital Corporation, priority 2004, dated 2014)
